Experiments:
[1] = tested on: Mycobacterium tuberculosis Erdman (autoluminescent); experiment: Einf, fitted maximum growth inhibition of three-drug combination (fraction); higher = stronger maximal inhibition
Experimental: (§1)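 DiaMOND equipotent three-drug combination dose responses (10 doses, 1.5- or 2-fold spacing, centred on IC90) against autoluminescent M. tuberculosis Erdman in 8 in vitro models. Read-out is OD600, or luminescence for the intracellular and dormancy models, normalised to untreated wells. Hill-fit Einf, AUC25 and GRinf are potency metrics; FIC50 and FIC90 are total Loewe fractional inhibitory concentrations as log2 (negative = synergy).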

[2] = tested on: Mycobacterium tuberculosis Erdman (autoluminescent); experiment: total FIC90 (Loewe) at 90% inhibition, three-drug combination (log2); higher = more antagonistic
Experimental: as §1

[3] = tested on: Mycobacterium tuberculosis Erdman (autoluminescent); experiment: GRinf, maximum normalised growth rate inhibition (three-drug combination) (unitless (-1 to 1)); higher = less effect (negative = killing)
Experimental: as §1

[4] = tested on: Mycobacterium tuberculosis Erdman (autoluminescent); experiment: total FIC50 (Loewe) at 50% inhibition, three-drug combination (log2); higher = more antagonistic
Experimental: as §1

[5] = tested on: Mycobacterium tuberculosis Erdman (autoluminescent); experiment: AUC25, normalised area under dose response up to IC25 (three-drug combination) (fraction (0-1)); higher = more potent at low dose
Experimental: as §1

COc1nc2ccc(Br)cc2cc1[C@@H](c1ccccc1)[C@@](O)(CCN(C)C)c1cccc2ccccc12 [bedaquiline] + COc1c(N2C[C@@H]3CCCN[C@@H]3C2)c(F)cc2c(=O)c(C(=O)O)cn(C3CC3)c12 [moxifloxacin] + CO[C@H]1/C=C/O[C@@]2(C)Oc3c(C)c(O)c4c(O)c(c(/C=N/N5CCN(C)CC5)c(O)c4c3C2=O)NC(=O)/C(C)=C\C=C\[C@H](C)[C@H](O)[C@@H](C)[C@@H](O)[C@@H](C)[C@H](OC(C)=O)[C@@H]1C [rifampicin]
Conditions	AUC25, [5]	Einf, [1]	GRinf, [3]	total FIC50, [4]	total FIC90, [2]
in vitro model: acidic pH 5.7, time point: constant (~7 days, model-specific)	0.0637	0.833	-0.0329	0.708	–
in vitro model: acidic pH 5.7, time point: terminal (~4-5 doublings, model-specific)	0.0621	0.98	-0.13	1.07	0.594
in vitro model: intracellular J774, time point: constant = terminal	–	0.938	-0.427	–	0.931

Conditions	AUC25, [5]	Einf, [1]	GRinf, [3]	total FIC50, [4]	total FIC90, [2]
in vitro model: butyrate, time point: constant (~7 days, model-specific)	0.12	0.964	-0.414	0.594	0.579
in vitro model: butyrate, time point: terminal (~4-5 doublings, model-specific)	0.105	0.99	-0.247	0.573	1.1
in vitro model: cholesterol 0.05 mM, time point: constant (~7 days, model-specific)	0.0826	0.745	-0.166	0.0975	–
in vitro model: cholesterol 0.05 mM, time point: terminal (~4-5 doublings, model-specific)	0.074	0.866	-0.045	1.13	-0.616
in vitro model: cholesterol-high 0.2 mM, time point: constant (~7 days, model-specific)	0.057	0.957	-0.452	0.677	0.0311
in vitro model: cholesterol-high 0.2 mM, time point: terminal (~4-5 doublings, model-specific)	0.0547	1	-0.61	0.955	0.594
in vitro model: dormancy (butyrate + nitrate, low O2), time point: constant (~7 days, model-specific)	0.0876	0.925	0.215	0.688	0.901
in vitro model: dormancy (butyrate + nitrate, low O2), time point: terminal (~4-5 doublings, model-specific)	0.0619	0.982	-0.201	0.97	1.03
in vitro model: standard 7H9 glycerol, time point: constant = terminal	0.0774	0.96	-0.141	0.732	–
in vitro model: valerate, time point: constant (~7 days, model-specific)	0.046	0.884	-0.0825	1.19	–
in vitro model: valerate, time point: terminal (~4-5 doublings, model-specific)	0.0316	0.953	-0.044	1.1	0.726

COc1nc2ccc(Br)cc2cc1[C@@H](c1ccccc1)[C@@](O)(CCN(C)C)c1cccc2ccccc12 [bedaquiline] + CC[C@@H](CO)NCCN[C@@H](CC)CO [ethambutol] + NNC(=O)c1ccncc1 [isoniazid]
Conditions	AUC25, [5]	Einf, [1]	GRinf, [3]	total FIC50, [4]	total FIC90, [2]
in vitro model: acidic pH 5.7, time point: constant (~7 days, model-specific)	0.112	0.858	-0.682	0.0458	–
in vitro model: acidic pH 5.7, time point: terminal (~4-5 doublings, model-specific)	0.0484	0.953	-0.339	0.537	-0.855
in vitro model: intracellular J774, time point: constant = terminal	–	0.988	-0.401	–	-0.307

Conditions	AUC25, [5]	Einf, [1]	GRinf, [3]	total FIC50, [4]	total FIC90, [2]
in vitro model: butyrate, time point: constant (~7 days, model-specific)	0.0535	0.943	-0.0949	0.537	–
in vitro model: butyrate, time point: terminal (~4-5 doublings, model-specific)	0.0425	0.975	-0.105	0.472	-0.153
in vitro model: cholesterol 0.05 mM, time point: constant (~7 days, model-specific)	0.0741	0.695	-0.191	0.858	–
in vitro model: cholesterol 0.05 mM, time point: terminal (~4-5 doublings, model-specific)	0.0839	0.891	-0.205	1.12	0.995
in vitro model: cholesterol-high 0.2 mM, time point: constant (~7 days, model-specific)	0.026	0.998	-0.751	1.05	–
in vitro model: cholesterol-high 0.2 mM, time point: terminal (~4-5 doublings, model-specific)	0.0384	1	-0.702	1.09	0.96
in vitro model: dormancy (butyrate + nitrate, low O2), time point: constant (~7 days, model-specific)	0.121	0.849	0.491	1.04	–
in vitro model: dormancy (butyrate + nitrate, low O2), time point: terminal (~4-5 doublings, model-specific)	0.0982	0.987	-0.0322	0.301	0.198
in vitro model: standard 7H9 glycerol, time point: constant = terminal	0.0658	0.957	-0.0846	0.398	–
in vitro model: valerate, time point: constant (~7 days, model-specific)	0.116	0.912	-0.0812	0.656	–
in vitro model: valerate, time point: terminal (~4-5 doublings, model-specific)	0.0717	0.954	-0.0498	0.744	0.58

CC[C@@H](CO)NCCN[C@@H](CC)CO [ethambutol] + NNC(=O)c1ccncc1 [isoniazid] + CO[C@H]1/C=C/O[C@@]2(C)Oc3c(C)c(O)c4c(O)c(c(/C=N/N5CCN(C6CCCC6)CC5)c(O)c4c3C2=O)NC(=O)/C(C)=C\C=C\[C@H](C)[C@H](O)[C@@H](C)[C@@H](O)[C@@H](C)[C@H](OC(C)=O)[C@@H]1C [rifapentine]
Conditions	AUC25, [5]	Einf, [1]	GRinf, [3]	total FIC50, [4]	total FIC90, [2]
in vitro model: acidic pH 5.7, time point: constant (~7 days, model-specific)	0.116	0.926	-0.233	-0.0354	–
in vitro model: acidic pH 5.7, time point: terminal (~4-5 doublings, model-specific)	0.0443	0.974	-0.12	0.316	-0.0587
in vitro model: intracellular J774, time point: constant = terminal	–	0.961	-0.299	–	-1.77

Conditions	AUC25, [5]	Einf, [1]	GRinf, [3]	total FIC50, [4]	total FIC90, [2]
in vitro model: butyrate, time point: constant (~7 days, model-specific)	0.0656	0.919	-0.00839	0.419	–
in vitro model: butyrate, time point: terminal (~4-5 doublings, model-specific)	0.0504	0.961	0.0115	0.431	-0.175
in vitro model: cholesterol 0.05 mM, time point: constant (~7 days, model-specific)	0.0782	0.62	0.0218	0.251	–
in vitro model: cholesterol 0.05 mM, time point: terminal (~4-5 doublings, model-specific)	0.0679	0.705	0.236	0.672	–
in vitro model: cholesterol-high 0.2 mM, time point: constant (~7 days, model-specific)	0.0261	0.963	-0.465	1.28	–
in vitro model: cholesterol-high 0.2 mM, time point: terminal (~4-5 doublings, model-specific)	0.0378	1	-0.581	1.47	1.31
in vitro model: dormancy (butyrate + nitrate, low O2), time point: constant (~7 days, model-specific)	0.123	0.85	0.351	0.273	–
in vitro model: dormancy (butyrate + nitrate, low O2), time point: terminal (~4-5 doublings, model-specific)	0.118	0.99	-0.216	0.00837	0.792
in vitro model: standard 7H9 glycerol, time point: constant = terminal	0.0469	0.904	0.0971	0.347	–
in vitro model: valerate, time point: constant (~7 days, model-specific)	0.0468	0.866	0.0486	0.524	–
in vitro model: valerate, time point: terminal (~4-5 doublings, model-specific)	0.0336	0.929	0.0406	0.609	-0.125

From the supplement of paper PMC8617591
